For experiment [1], the system named is mouse embryonic fibroblasts (MEFs). In words: Spontaneous adipogenesis of MEFs in growth medium: lipid accumulation under phase contrast microscopy. Format: cell-based. The settings on record: day 8 of culture in growth medium, HA 80 μg/mL, DS 20 μg/mL, HA8O+DS20 100 μg/mL. As to the method: MEFs obtained from embryos of 13 days gestational age were cultured in monolayer in growth medium consisting of […] (Invitrogen, Carlsbad, Calif., USA) basal medium supplemented with […] supplement (7.5%), foetal bovine serum (7.5%) and antibiotics, in 12-well culture plates of 1 mL capacity/well, following a previously described protocol (J. B. Hansen et al., Proc. Natl. Acad. Sci. USA 101, 4112-4117 (2004)). Two days after reaching confluence, which is considered day 0 of culture, the cells were exposed to: carrier (water); hyaluronic acid (HA) at a final concentration (f.c.) of 80 μg/mL; dermatan sulphate (DS) at an f.c. of 20 μg/mL; chondroitin sulphate (CS) at an f.c. of 20 μg/mL; or composition of the present invention HA8O+DS20 at an f.c. of 100 μg/mL, containing 80 μg of HA and 20 μg of DS per mL. […] The mRNA levels of the genes related to adipocyte differentiation PPARgamma, C/EBPalpha and fatty acid synthase (FAS) were determined by real-time PCR from the total RNA extracted from the cells with Trizol reagent and reverse-transcribed with reverse transcriptase, and using the mRNA of beta-actin as an internal control. […] The statistical significance of differences with respect to treatment with the carrier was analyzed by means of Student's t-test. […]

Experiment [2] relates to resistin. In words: Resistin gene expression in MEF-derived adipocytes. Format: cell-based, mouse. The conditions noted are these: 8 days of MEF adipocyte differentiation in adipogenic medium; compositions at f.c. 20, 100, 200 μg/mL; HA 80, DS 20 μg/mL. As for the experimental part: MEFs obtained from embryos of 13 days gestational age were cultured in monolayer in growth medium consisting of […] (Invitrogen, Carlsbad, Calif., USA) basal medium supplemented with […] supplement (7.5%), foetal bovine serum (7.5%) and antibiotics, in 12-well culture plates of 1 mL capacity/well, following a previously described protocol (J. B. Hansen et al., Proc. Natl. Acad. Sci. USA 101, 4112-4117 (2004)). […] The mRNA levels of the genes related to adipocyte differentiation PPARgamma, C/EBPalpha and fatty acid synthase (FAS) were determined by real-time PCR from the total RNA extracted from the cells with Trizol reagent and reverse-transcribed with reverse transcriptase, and using the mRNA of beta-actin as an internal control. […] The statistical significance of differences with respect to treatment with the carrier was analyzed by means of Student's t-test. […] The mRNA levels of selected genes were determined by real-time PCR, as described in Example 1. […] Expression levels of the resistin gene were determined by real-time PCR, as described in Example 1.

On to hyaluronic acid [HA80], for which the “clusters of cells spontaneously differentiated into adipocytes filled with fat droplets” value in experiment [1] is reported as “presence of a number of clusters of cells spontaneously differentiated into adipocytes filled with fat droplets”. In addition, in experiment [2], the expression of resistin entry is listed as “not reproduced”.

Take dermatan sulphate [DS20]: the “clusters of cells spontaneously differentiated into adipocytes filled with fat droplets” value in experiment [1] is listed as “presence of a number of clusters of cells spontaneously differentiated into adipocytes filled with fat droplets”. Besides, the expression of resistin entry in experiment [2] is given as “not reproduced”.

Values taken from patent US20150182597A1, “COMPOSITIONS COMPRISING HYALURONIC ACID AND DERMATAN SULPHATE FOR THE TREATMENT OF BEING OVERWEIGHT AND OBESITY” (BIOIBERICA, S.A., priority 2012, published 2015).
